From patent US8008258B2, “Cop 1 for treatment of inflammatory bowel diseases” (Yeda Research and Development Co. Ltd., priority 2003, dated 2011)

Test system: mesenteric lymph nodes (MLN) cells
Assay: Lymphocyte proliferation (thymidine incorporation) in response to colonic extract, cells from colitis-induced mice
Format: cell-based
Protocol: FIGS. 4A-4F show the effect of GA on the lymphocyte proliferation in different mouse strains. The responses of normal mice, colitis-induced mice, and colitis-induced mice treated with GA orally or parenterally daily are compared in the BALB/c (FIGS. 4A, 4B), (SJL/JxBALB/c)F1 (FIGS. 4C, 4D), and SJL/J (FIGS. 4E, 4F) strains. Cells from spleens (FIGS. 4A, 4C, 4E) and mesenteric lymph nodes (MLN) (FIGS. 4B, 4D, 4F) were cultured, 7 days after disease induction, with no antigen, colonic extract (CE, 200 μg/ml), or GA (50 μg/ml). Results of thymidine incorporation are expressed as mean cpm±ISD of six culture wells and represent one of two similar experiments, using pooled cells from 3-5 mice in each group. # Indicates significant increase in the response to CE by colitic mice. * Indicates significant decrease in the response to CE induced by GA treatment.
Colon extract. Colons of syngeneic normal mice were cut into small strips and homogenized. The homogenate was diluted in PBS and passed through glass wool. Protein quantity was measured by using a protein assay kit (Bio-Rad, Richmond, Calif.).
Reactivity assays. Spleens and mesenteric lymph nodes (MLN) cells (0.5×10^6 cell/well) were cultured with either GA (50 μg/ml), colon extract (200 μg/ml), immobilized anti-CD3 (5 μg/ml), or PBS control, in a final volume of 250 μl/well (6 wells for each antigen). For proliferation assay, cells were cultured in RPMI 1640 with 10% FCS, pulsed with 1 μCi of [3H] thymidine after 48 h incubation, and harvested 12 h later. For cytokine (TNF-α and TGF-β) assay, cells were cultured in serum-free medium (DCCM-1), supernatants were collected after 72 h, and tested for the cytokines by ELISA using mAbs pairs (R&D Systems, Minneapollis, Minn.) according to the manufacturer's instruction.

glatiramer acetate [GA]
Inhibition of the MLN proliferation response to colonic extract by GA treatment (MLN from (SJL/JxBALB/c)F1 mice treated either orally or parenterally with GA): complete inhibition | Inhibition of the local MLN proliferation response to colonic extract by GA treatment (MLN from BALB/c, colonic extract 200 μg/ml, 7 days after disease induction): 66% | Inhibition of the MLN proliferation response to colonic extract by GA treatment (MLN from SJL/J mice treated either orally or parenterally with GA): complete inhibition
